pIC50: −log10 of the molar value. Active and inactive are the calls of the source. No cut-off for these calls is given here.
Tests used:
Acetylcholinesterase [1] = molecular target: Acetylcholinesterase (Electrophorus electricus, UniProt O42275); assay: Inhibition of electric eel AChE using acetylthiocholine iodide as substrate preincubated for 5 mins followed by DTNB addition for 5 mins and subsequent addition of substrate measured after 3 mins by Ellman's method
Cholinesterase [2] = molecular target: Cholinesterase (Equus caballus, UniProt P81908)
Description: Inhibition of equine serum BCHE using butyrylthiocholine iodide as substrate preincubated for 5 mins followed by DTNB addition for 5 mins and subsequent addition of substrate measured after 3 mins by Ellman's method

PC-12 [3] = assay: Protection against CoCl2-induced damage in rat PC12 cells assessed as cell viability at 10 uM preincubated for 36 hrs followed by CoCl2 addition measured after 12 hrs by MTT assay (reference value: 51.2%); format: functional; conditions: read-out: Activity
PC-12 [4] = assay: Protection against CoCl2-induced damage in rat PC12 cells assessed as increase in cell viability preincubated for 36 hrs followed by CoCl2 addition measured after 12 hrs by MTT assay; format: functional, cell-based
Acetylcholinesterase [5] = molecular target: T1, Acetylcholinesterase (Homo sapiens, UniProt P22303); assay: Inhibition of human erythrocyte AChE using acetylthiocholine iodide as substrate preincubated for 5 mins followed by DTNB addition for 5 mins and subsequent addition of substrate measured after 3 mins by Ellman's method
in vitro [6] = conditions: human, HepG2 cells
Description: Cytotoxicity against human HepG2 cells assessed as cell viability at 10 uM after 24 hrs by MTT assay relative to control

[7] = molecular target: Amyloid-beta precursor protein (Homo sapiens) (UniProt P05067); assay: Inhibition of self-induced amyloid beta (1 to 42) (unknown origin) aggregation measured after 24 hrs by ThT fluorescence assay
in vitro [8] = conditions: human, HepG2 cells; remark: listed apart in the source
Description: Cytotoxicity against human HepG2 cells assessed as cell viability at 2.5 uM after 24 hrs by MTT assay relative to control

[9] = Cytotoxicity against NGF-differentiated rat PC12 cells assessed as cell viability at 10 uM after 48 hrs by MTT assay relative to control; format: cell-based, PC-12; conditions: read-out: Activity
in vitro [10] = conditions: human, HepG2 cells; remark: listed apart in the source
Description: Cytotoxicity against human HepG2 cells assessed as cell viability at 5 uM after 24 hrs by MTT assay relative to control

in vitro [11] = conditions: human, HepG2 cells; remark: listed apart in the source
Description: Cytotoxicity against human HepG2 cells assessed as cell viability at 1.25 uM after 24 hrs by MTT assay relative to control

Acetylcholinesterase [12] = molecular target: T1, Acetylcholinesterase; assay: Potency index, ratio of tacrine IC50 to compound IC50 for inhibition of human erythrocyte AChE
[13] = molecular target: Amyloid-beta precursor protein (Homo sapiens) (UniProt P05067); assay: Inhibition of self-induced amyloid beta (1 to 42) (unknown origin) aggregation at 20 uM measured after 24 hrs by ThT fluorescence assay relative to control
PC-12 [14] = assay: Protection against CoCl2-induced damage in rat PC12 cells assessed as cell viability at 2.5 uM preincubated for 36 hrs followed by CoCl2 addition measured after 12 hrs by MTT assay (reference value: 51.2%); format: functional; conditions: read-out: Activity
Cholinesterase [15] = molecular target: Cholinesterase (Homo sapiens, UniProt P06276); assay: Inhibition of human serum BCHE using butyrylthiocholine iodide as substrate preincubated for 5 mins followed by DTNB addition for 5 mins and subsequent addition of substrate measured after 3 mins by Ellman's method
[16] = molecular target: Amyloid-beta precursor protein (Homo sapiens) (UniProt P05067); assay: Inhibition of self-induced amyloid beta (1 to 42) (unknown origin) aggregation at 100 uM measured after 24 hrs by ThT fluorescence assay relative to control
PC-12 [17] = assay: Protection against CoCl2-induced damage in rat PC12 cells assessed as cell viability at 5 uM preincubated for 36 hrs followed by CoCl2 addition measured after 12 hrs by MTT assay (reference value: 51.2%); format: functional; conditions: read-out: Activity
Acetylcholinesterase [18] = molecular target: T1, Acetylcholinesterase; assay: Mixed-type inhibition of human erythrocyte AChE at 2.5 to 10 nM using varying levels of acetylthiocholine iodide as substrate by Lineweaver-Burk plot analysis
[19] = molecular target: Acetylcholinesterase (Electrophorus electricus) (UniProt O42275); assay: Mixed-type inhibition of electric eel AChE at 2.5 to 10 nM using varying levels of acetylthiocholine iodide as substrate by Lineweaver-Burk plot analysis
[20] = molecular target: Amyloid-beta precursor protein (Homo sapiens) (UniProt P05067); assay: Inhibition of self-induced amyloid beta (1 to 42) (unknown origin) aggregation up to 100 uM measured after 24 hrs by ThT fluorescence assay

T1 sequence (P22303 whole entry): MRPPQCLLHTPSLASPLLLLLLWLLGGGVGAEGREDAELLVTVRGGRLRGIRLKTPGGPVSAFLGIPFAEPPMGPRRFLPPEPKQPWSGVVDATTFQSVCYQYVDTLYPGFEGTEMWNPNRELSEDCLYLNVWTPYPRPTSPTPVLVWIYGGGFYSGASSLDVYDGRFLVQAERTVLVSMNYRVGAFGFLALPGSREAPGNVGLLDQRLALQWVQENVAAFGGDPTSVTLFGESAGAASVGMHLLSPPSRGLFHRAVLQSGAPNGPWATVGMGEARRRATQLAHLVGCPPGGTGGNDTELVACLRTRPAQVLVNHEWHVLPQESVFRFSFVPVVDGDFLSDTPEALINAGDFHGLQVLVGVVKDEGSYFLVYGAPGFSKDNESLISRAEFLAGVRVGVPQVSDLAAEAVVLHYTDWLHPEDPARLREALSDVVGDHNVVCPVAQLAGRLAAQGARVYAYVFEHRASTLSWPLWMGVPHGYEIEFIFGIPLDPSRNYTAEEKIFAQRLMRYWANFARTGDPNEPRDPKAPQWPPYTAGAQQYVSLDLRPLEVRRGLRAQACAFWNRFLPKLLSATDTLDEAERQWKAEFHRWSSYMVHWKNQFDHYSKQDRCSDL
Cholinesterase (Equus caballus, UniProt P81908), sequence (P81908 whole entry): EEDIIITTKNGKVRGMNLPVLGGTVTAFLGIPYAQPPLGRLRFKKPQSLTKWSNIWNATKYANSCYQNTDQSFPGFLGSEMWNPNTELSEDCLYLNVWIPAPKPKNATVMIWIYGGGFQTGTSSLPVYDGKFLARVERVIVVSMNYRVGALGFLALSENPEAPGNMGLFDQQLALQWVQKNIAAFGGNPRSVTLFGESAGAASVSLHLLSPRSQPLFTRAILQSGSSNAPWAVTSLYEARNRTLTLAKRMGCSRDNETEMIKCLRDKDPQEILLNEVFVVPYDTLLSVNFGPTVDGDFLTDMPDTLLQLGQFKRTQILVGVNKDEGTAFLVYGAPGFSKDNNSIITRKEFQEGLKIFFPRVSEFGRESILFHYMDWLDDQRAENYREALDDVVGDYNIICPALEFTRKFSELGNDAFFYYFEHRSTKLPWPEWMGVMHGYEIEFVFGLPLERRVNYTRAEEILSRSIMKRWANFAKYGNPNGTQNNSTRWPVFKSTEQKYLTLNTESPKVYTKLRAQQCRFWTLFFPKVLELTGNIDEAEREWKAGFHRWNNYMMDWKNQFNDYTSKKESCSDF
Amyloid-beta precursor protein (Homo sapiens), sequence (P05067 whole entry): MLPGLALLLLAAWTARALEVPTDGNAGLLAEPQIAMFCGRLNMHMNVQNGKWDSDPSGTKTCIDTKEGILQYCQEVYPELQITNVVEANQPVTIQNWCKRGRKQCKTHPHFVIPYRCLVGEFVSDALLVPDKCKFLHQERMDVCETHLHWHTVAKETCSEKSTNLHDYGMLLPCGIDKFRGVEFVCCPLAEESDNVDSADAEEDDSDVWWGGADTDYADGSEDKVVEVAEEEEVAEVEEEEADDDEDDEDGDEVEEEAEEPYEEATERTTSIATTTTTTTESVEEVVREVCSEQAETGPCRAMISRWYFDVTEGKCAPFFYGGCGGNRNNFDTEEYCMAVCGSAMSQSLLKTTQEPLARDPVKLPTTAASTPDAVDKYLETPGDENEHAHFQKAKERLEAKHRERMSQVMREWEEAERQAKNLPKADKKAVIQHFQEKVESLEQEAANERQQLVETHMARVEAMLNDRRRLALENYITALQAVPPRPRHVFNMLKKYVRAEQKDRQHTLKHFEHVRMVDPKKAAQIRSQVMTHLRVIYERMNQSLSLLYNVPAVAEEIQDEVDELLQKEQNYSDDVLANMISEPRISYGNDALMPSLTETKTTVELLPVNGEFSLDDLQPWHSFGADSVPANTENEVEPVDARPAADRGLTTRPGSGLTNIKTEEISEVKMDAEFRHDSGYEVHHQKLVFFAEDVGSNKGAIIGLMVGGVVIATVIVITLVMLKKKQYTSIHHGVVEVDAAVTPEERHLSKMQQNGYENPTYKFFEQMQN
Acetylcholinesterase (Electrophorus electricus, UniProt O42275), sequence (O42275 whole entry): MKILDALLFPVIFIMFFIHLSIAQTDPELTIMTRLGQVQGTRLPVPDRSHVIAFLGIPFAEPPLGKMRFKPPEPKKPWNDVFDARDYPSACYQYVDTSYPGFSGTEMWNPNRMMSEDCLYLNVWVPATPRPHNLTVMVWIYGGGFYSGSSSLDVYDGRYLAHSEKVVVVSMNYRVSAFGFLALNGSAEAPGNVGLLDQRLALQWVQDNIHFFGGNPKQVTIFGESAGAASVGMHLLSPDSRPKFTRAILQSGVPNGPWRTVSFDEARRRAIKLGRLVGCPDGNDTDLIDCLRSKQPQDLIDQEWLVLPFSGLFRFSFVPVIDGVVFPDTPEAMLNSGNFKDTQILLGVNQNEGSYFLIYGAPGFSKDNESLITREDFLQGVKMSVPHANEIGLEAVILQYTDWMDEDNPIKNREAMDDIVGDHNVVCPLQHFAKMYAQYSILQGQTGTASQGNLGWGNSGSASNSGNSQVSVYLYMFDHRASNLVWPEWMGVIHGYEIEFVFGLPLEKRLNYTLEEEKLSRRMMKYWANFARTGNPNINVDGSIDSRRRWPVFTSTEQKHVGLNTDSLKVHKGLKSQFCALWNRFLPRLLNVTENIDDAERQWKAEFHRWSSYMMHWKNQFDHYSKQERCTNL
Cholinesterase (Homo sapiens, UniProt P06276), sequence (P06276 whole entry): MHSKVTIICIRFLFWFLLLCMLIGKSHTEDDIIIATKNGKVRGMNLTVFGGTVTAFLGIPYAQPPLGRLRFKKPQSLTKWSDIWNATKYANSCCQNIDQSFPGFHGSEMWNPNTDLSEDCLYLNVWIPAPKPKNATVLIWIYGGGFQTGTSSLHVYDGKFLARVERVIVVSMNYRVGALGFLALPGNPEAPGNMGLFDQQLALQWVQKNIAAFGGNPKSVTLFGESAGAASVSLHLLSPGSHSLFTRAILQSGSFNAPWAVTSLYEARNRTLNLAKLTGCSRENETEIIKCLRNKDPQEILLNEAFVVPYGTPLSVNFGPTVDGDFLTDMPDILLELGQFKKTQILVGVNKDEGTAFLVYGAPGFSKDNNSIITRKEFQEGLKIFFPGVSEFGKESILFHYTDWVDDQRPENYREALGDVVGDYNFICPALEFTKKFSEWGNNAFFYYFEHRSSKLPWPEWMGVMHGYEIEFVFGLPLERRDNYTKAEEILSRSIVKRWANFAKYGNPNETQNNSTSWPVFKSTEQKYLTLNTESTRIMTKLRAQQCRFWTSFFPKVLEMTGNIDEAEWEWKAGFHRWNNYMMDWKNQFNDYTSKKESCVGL
Acetylcholinesterase (Electrophorus electricus), sequence (O42275 24-633 limits assumed): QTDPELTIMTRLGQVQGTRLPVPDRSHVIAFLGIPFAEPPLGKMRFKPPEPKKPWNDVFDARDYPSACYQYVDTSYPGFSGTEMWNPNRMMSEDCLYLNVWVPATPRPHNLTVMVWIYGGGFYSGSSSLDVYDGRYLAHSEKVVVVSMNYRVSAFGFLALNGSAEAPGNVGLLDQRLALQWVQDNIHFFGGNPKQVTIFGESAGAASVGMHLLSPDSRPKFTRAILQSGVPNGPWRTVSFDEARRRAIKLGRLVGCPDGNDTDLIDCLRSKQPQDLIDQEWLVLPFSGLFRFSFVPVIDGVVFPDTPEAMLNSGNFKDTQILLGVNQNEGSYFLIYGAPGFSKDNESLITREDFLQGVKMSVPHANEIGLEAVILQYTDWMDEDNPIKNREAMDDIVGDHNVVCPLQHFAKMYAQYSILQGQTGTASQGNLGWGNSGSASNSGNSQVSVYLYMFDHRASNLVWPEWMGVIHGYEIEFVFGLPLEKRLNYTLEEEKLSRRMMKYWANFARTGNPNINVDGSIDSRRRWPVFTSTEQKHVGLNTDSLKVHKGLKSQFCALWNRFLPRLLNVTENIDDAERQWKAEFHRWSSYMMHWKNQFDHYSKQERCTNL

| Structure (SMILES) | pIC50 (Acetylcholinesterase [1]) | pIC50 (Cholinesterase [2]) | also measured |
| --- | --- | --- | --- |
| COc1cc(/C=C/C(=O)NCCCCNc2c3c(nc4ccccc24)CCCC3)cc(OC)c1OCc1nc(C)c(C)nc1C | 6.75 | < 6.00 | – |
| Cc1c(C)c2c(c(C)c1O)CCC(C)(C(=O)O)O2 (centres undefined) [TROLOX] | – | – | viability at 10 µM (PC-12 [3]): 101% |
| Cc1nc(C)c(COc2ccc(CC(O)C(=O)NCCCCNc3c4c(nc5ccccc35)CCCC4)cc2OCc2nc(C)c(C)nc2C)nc1C (centres undefined) | < 6.00 | < 6.00 | – |
| Cc1nc(C)c(COc2ccc(/C=C/C(=O)NCCCCCCCCNc3c4c(nc5ccccc35)CCCC4)cc2)nc1C | 6.58 | 6.64 | – |
| COc1cc(/C=C/C(=O)NCCCNc2c3c(nc4ccccc24)CCCC3)cc(OC)c1OCc1nc(C)c(C)nc1C | 6.94 | < 6.00 | – |
| Cc1nc(C)c(COc2ccc(/C=C/C(=O)NCCNc3c4c(nc5ccccc35)CCCC4)cc2OCc2nc(C)c(C)nc2C)nc1C | 6.96 | < 6.00 | – |
| COc1cc(/C=C/C(=O)NCCCCCCCCNc2c3c(nc4ccccc24)CCCC3)cc(OC)c1OCc1nc(C)c(C)nc1C | 6.84 | 7.78 | – |
| O=C(/C=C/c1ccc(O)cc1)NCCCCCCCCNc1c2c(nc3ccccc13)CCCC2 | 6.28 | 6.56 | – |
| Cc1nc(C)c(COc2ccc(/C=C/C(=O)NCCCCNc3c4c(nc5ccccc35)CCCC4)cc2)nc1C | 6.48 | 8.64 | – |
| COc1cc(/C=C/C(=O)NCCCNc2c3c(nc4ccccc24)CCCC3)ccc1OCc1nc(C)c(C)nc1C | 7.91 | 7.65 | – |
| COc1cc(/C=C/C(=O)NCCCCCCNc2c3c(nc4ccccc24)CCCC3)ccc1OCc1nc(C)c(C)nc1C | 7.83 | 7.55 | – |
| COc1cc(/C=C/C(=O)NCCNc2c3c(nc4ccccc24)CCCC3)cc(OC)c1O | 7.00 | < 6.00 | – |
| COc1cc(/C=C/C(=O)NCCCCNc2c3c(nc4ccccc24)CCCC3)cc(OC)c1O | 7.19 | 6.62 | – |
| COc1cc(/C=C/C(=O)NCCCCCCCCNc2c3c(nc4ccccc24)CCCC3)cc(OC)c1O | 7.49 | 8.03 | – |
| COc1cc(/C=C/C(=O)NCCNc2c3c(nc4ccccc24)CCCC3)ccc1OCc1nc(C)c(C)nc1C | 7.48 | 6.30 | – |
| O=C(/C=C/c1ccc(O)cc1)NCCNc1c2c(nc3ccccc13)CCCC2 | 6.96 | 6.52 | – |
| Cc1nc(C)c(COc2ccc(/C=C/C(=O)NCCCCCCNc3c4c(nc5ccccc35)CCCC4)cc2OCc2nc(C)c(C)nc2C)nc1C | 6.87 | 7.17 | – |
| COc1cc(/C=C/C(=O)NCCCCCCNc2c3c(nc4ccccc24)CCCC3)cc(OC)c1O | 8.41 | 7.61 | Activity (PC-12 [4]): Dose-dependent effect; pIC50 (Acetylcholinesterase [5]): 7.19; viability at 24 h, 10 µM (in vitro [6]): 81.8%; inhibition [7]: Dose-dependent effect; viability at 24 h, 2.5 µM (in vitro [8]): 96.3%; viability at 10 µM (PC-12 [3]): 107%; viability at 48 h, 10 µM [9]: 131%; viability at 24 h, 5 µM (in vitro [10]): 94.9%; viability at 24 h, 1.25 µM (in vitro [11]): 98.4%; Ratio IC50 (Acetylcholinesterase [12]): 2; inhibition [13]: 47%; viability at 2.5 µM (PC-12 [14]): 92.4%; pIC50 (Cholinesterase [15]): 7.31; inhibition [16]: 48%; viability at 5 µM (PC-12 [17]): 99.5%; inhibition (Acetylcholinesterase [18]): Active; inhibition [19]: Active |

| Structure (SMILES) | pIC50 (Acetylcholinesterase [1]) | pIC50 (Cholinesterase [2]) | also measured |
| --- | --- | --- | --- |
| COc1cc(/C=C/C(=O)NCCNc2c3c(nc4ccccc24)CCCC3)cc(OC)c1OCc1nc(C)c(C)nc1C | 7.19 | 6.21 | – |
| COc1cc(/C=C/C(=O)NCCCCNc2c3c(nc4ccccc24)CCCC3)ccc1OCc1nc(C)c(C)nc1C | 6.73 | 7.49 | – |
| Cc1nc(C)c(COc2ccc(/C=C/C(=O)NCCCNc3c4c(nc5ccccc35)CCCC4)cc2)nc1C | 6.69 | 8.28 | – |
| O=C(/C=C/c1ccc(O)cc1)NCCCCNc1c2c(nc3ccccc13)CCCC2 | 6.86 | 7.53 | – |
| Cc1nc(C)c(COc2ccc(CC(O)C(=O)NCCCNc3c4c(nc5ccccc35)CCCC4)cc2OCc2nc(C)c(C)nc2C)nc1C (centres undefined) | < 6.00 | 6.78 | – |
| Cc1nc(C)c(COc2ccc(/C=C/C(=O)NCCCNc3c4c(nc5ccccc35)CCCC4)cc2OCc2nc(C)c(C)nc2C)nc1C | 7.86 | 6.70 | – |
| COc1cc(/C=C/C(=O)NCCCNc2c3c(nc4ccccc24)CCCC3)cc(OC)c1O | 7.59 | 6.48 | – |
| COc1cc(/C=C/C(=O)NCCCCCCCCNc2c3c(nc4ccccc24)CCCC3)ccc1OCc1nc(C)c(C)nc1C | 6.52 | 6.76 | – |
| Cc1nc(C)c(COc2ccc(/C=C/C(=O)NCCCCNc3c4c(nc5ccccc35)CCCC4)cc2OCc2nc(C)c(C)nc2C)nc1C | 6.86 | 6.96 | – |
| O=C(/C=C/c1ccc(O)cc1)NCCCNc1c2c(nc3ccccc13)CCCC2 | 6.89 | 7.36 | – |
| Cc1nc(C)c(COc2ccc(/C=C/C(=O)NCCCCCCCCNc3c4c(nc5ccccc35)CCCC4)cc2OCc2nc(C)c(C)nc2C)nc1C | < 6.00 | 7.21 | – |
| COc1cc(/C=C/C(=O)NCCCCCCNc2c3c(nc4ccccc24)CCCC3)cc(OC)c1OCc1nc(C)c(C)nc1C | 8.59 | 7.54 | pIC50 (Acetylcholinesterase [5]): 6.96; viability at 10 µM (PC-12 [3]): 11.2%; inhibition [20]: inactive; viability at 2.5 µM (PC-12 [14]): 37.7%; pIC50 (Cholinesterase [15]): 6.24; viability at 5 µM (PC-12 [17]): 15% |
| Cc1nc(C)c(COc2ccc(/C=C/C(=O)NCCCCCCNc3c4c(nc5ccccc35)CCCC4)cc2)nc1C | 6.52 | 6.83 | – |
| Cc1nc(C)c(COc2ccc(CC(O)C(=O)NCCNc3c4c(nc5ccccc35)CCCC4)cc2OCc2nc(C)c(C)nc2C)nc1C (centres undefined) | < 6.00 | 6.09 | – |
| Cc1nc(C)c(COc2ccc(CC(O)C(=O)NCCCCCCNc3c4c(nc5ccccc35)CCCC4)cc2OCc2nc(C)c(C)nc2C)nc1C (centres undefined) | 6.57 | 8.89 | – |
| Cc1nc(C)c(COc2ccc(/C=C/C(=O)NCCNc3c4c(nc5ccccc35)CCCC4)cc2)nc1C | 7.35 | 6.23 | – |
| O=C(/C=C/c1ccc(O)cc1)NCCCCCCNc1c2c(nc3ccccc13)CCCC2 | 7.35 | 7.62 | – |
| Cc1nc(C)c(COc2ccc(CC(O)C(=O)NCCCCCCCCNc3c4c(nc5ccccc35)CCCC4)cc2OCc2nc(C)c(C)nc2C)nc1C (centres undefined) | 7.19 | 8.42 | – |
